Data: patent US12419855B2, “Compositions comprising cannabinoid ions that are dissolved in glycerol” (Natural Extraction Systems, LLC, priority 2019, dated 2025)

Legend:
[1] = tested on: active seizures in an epileptic Entlebucher Mountain Dog; experiment: Arresting active seizures in canine; format: in vivo; details: single oral dose of 0.5-1.0 mg/kg in a formulation prepared according to Example 1
[2] = Solubility in ethanol:glycerol; format: physicochemical; details: in 25:75 by volume ethanol:glycerol; stated as lower than the 25 grams per liter of cannabidiol anion in the formulation
From the text: Cannabidiol is deprotonated in 0.5 molar potassium hydroxide in 190 proof ethanol to produce cannabidiol anion (2-(6-isopropenyl-3-methylcyclohex-2-en-1-yl)-3-hydroxy-5-pentylbenzene-1-oxide).

chronic insomnia = experiment: Efficacy against insomnia in humans; format: in vivo; details: adult human with chronic insomnia; approximately 25 milligrams in a formulation prepared according to Example 3; self-reported

SMILES: C=C(C)C1CCC(C)=CC1c1c(O)cc(CCCCC)cc1O (centres unmarked) [cannabidiol anion, 2-(6-isopropenyl-3-methylcyclohex-2-en-1-yl)-3-hydroxy-5-pentylbenzene-1-oxide]
- arrest of active seizures [1]: both consistently and instantaneously arrested active seizures
- seizure duration and severity [1]: reduced seizure duration and severity

SMILES: C=C(C)[C@@H]1CCC(C)=C[C@H]1c1c(O)cc(CCCCC)cc1O [molecular cannabidiol, cannabidiol]
- solubility of molecular cannabidiol [2]: < 25 grams per liter

SMILES: CCCCCc1cc(O)c(CC=C(C)CCC=C(C)C)c(O)c1 [cannabigerol anion, 2-(3,7-dimethylocta-2,6-diene-1-yl)-3-hydroxy-5-pentylbenzene-1-oxide]
- onset time of sedative effect (chronic insomnia): less than five
- sedative effect on insomnia (chronic insomnia): effective at treating the insomnia
